Where a name gives a salt, the structure may show the parent alone. Read-outs that look alike come from different tables or passages of the source.
Biological target: T1, IKK2 (Homo sapiens, UniProt O14920)
T1 construct: made in house; host or cells: insect cells (baculovirus, pFastBac; SF9)
T1 sequence (O14920 1-756): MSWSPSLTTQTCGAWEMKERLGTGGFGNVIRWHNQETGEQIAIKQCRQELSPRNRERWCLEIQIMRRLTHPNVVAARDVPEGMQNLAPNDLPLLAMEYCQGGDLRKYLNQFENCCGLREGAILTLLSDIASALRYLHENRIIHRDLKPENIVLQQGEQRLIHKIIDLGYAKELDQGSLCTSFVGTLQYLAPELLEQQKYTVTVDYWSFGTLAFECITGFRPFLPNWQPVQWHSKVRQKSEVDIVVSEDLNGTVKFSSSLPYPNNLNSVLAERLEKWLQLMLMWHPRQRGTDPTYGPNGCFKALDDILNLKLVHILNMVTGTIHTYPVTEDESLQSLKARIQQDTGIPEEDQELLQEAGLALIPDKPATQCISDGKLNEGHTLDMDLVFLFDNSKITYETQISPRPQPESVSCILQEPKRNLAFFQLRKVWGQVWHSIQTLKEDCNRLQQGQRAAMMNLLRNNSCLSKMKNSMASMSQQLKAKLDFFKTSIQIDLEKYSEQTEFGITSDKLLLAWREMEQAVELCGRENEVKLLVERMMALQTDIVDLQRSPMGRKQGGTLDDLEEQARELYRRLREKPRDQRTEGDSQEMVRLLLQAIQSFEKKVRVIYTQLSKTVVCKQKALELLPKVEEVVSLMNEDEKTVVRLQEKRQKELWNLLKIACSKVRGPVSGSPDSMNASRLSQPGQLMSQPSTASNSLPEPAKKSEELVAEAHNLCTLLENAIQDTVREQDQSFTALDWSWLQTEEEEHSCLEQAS
Assay: IKKβ Resin Enzyme Assay (IKK2 resin)
Assay type: biochemical
In short: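 Enzyme: human IKK2 with a C-terminal FLAG tag, baculovirus-expressed, purified as homodimer on anti-FLAG resin. It phosphorylates a biotinylated IκBα peptide with 1 μM ATP plus [γ-33P]ATP in 25 mM Hepes pH 7.6, Mg/Mn, for 30 min at 25° C. Incorporation is counted by scintillation after anion-exchange resin stop.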

[1] = Table 3, read-out: IKK Resin IC50
[2] = Table 11, read-out: IKK2 Resin IC50
[3] = Table 18, read-out: IKK2 Resin IC50
[4] = Table 14, read-out: IKK2 Resin IC50
[5] = Table 2, read-out: IKK Resin IC50
[6] = Table 4, read-out: IKK2 Resin IC50
[7] = Table 12, read-out: IKK2 Resin IC50

In the case of `CS(=O)(=O)c1ccc(-n2nc(C(N)=O)c3c2-c2cc(NC(=O)c4c(F)cccc4Cl)ccc2CC3)cc1` [Example 134, 8-[(2-chloro-6-fluorobenzoyl)amino]-1-[4-(methylsulfonyl)phenyl]-4,5-dihydro-1H-benzo[g]indazole-3-carboxamide], the IC50 [1] is reported as ≤ 1 µM.
`NC(=O)c1nn(-c2ccc(CCC(=O)CO)cc2)c2c1CCc1ccc(NC(=O)c3ccccc3Cl)cc1-2` [Example 299, 8-[(2-chlorobenzoyl)amino]-1-[4-(4-hydroxy-3-oxobutyl)phenyl]-4,5-dihydro-1H-benzo[g]indazole-3-carboxamide] was tested, and the IC50 [2] was ≤ 1 µM.
`CCS(=O)(=O)c1ccc(-n2nc(C(N)=O)c3c2-c2cc(NC(=O)c4ccccc4Cl)ccc2CC3)cc1` [Example 395, 8-[(2-chlorobenzoyl)amino]-1-[4-(ethylsulfonyl)phenyl]-4,5-dihydro-1H-benzo[g]indazole-3-carboxamide] was tested, and the IC50 [3] was ≤ 1 µM.
In the case of `NC(=O)c1nn(-c2ccc(F)c(F)c2)c2c1CCc1ccc(NC(=O)c3ccccc3Cl)cc1-2` [Example 363, 8-[(2-chlorobenzoyl)amino]-1-(3,4-difluorophenyl)-4,5-dihydro-1H-benzo[g]indazole-3-carboxamide], the IC50 [4] is reported as ≤ 1 µM.
For `CN(C)c1ccc(Cl)c(C(=O)Nc2ccc3c(c2)-c2c(c(C(N)=O)nn2-c2ccc(S(C)(=O)=O)cc2)CC3)c1` [Example 120, 8-{[2-chloro-5-(dimethylamino)benzoyl]amino}-1-[4-(methylsulfonyl)phenyl]-4,5-dihydro-1H-benzo[g]indazole-3-carboxamide], the IC50 [5] was ≤ 1 µM.
For `CN(C)S(=O)(=O)c1ccc(-n2nc(C(N)=O)c3c2-c2cc(NC(=O)c4ccccc4Cl)ccc2CC3)cc1` [Example 427, 8-[(2-chlorobenzoyl)amino]-1-{4-[(dimethylamino)sulfonyl]phenyl}-4,5-dihydro-1H-benzo[g]indazole-3-carboxamide], the IC50 (Table 21, read-out: IKK2 Resin IC50) was ≤ 1 µM.
In the case of `NC(=O)c1nn(-c2ccc(F)c(Cl)c2)c2c1CCc1ccc(NC(=O)c3ccccc3Cl)cc1-2` [Example 356, 8-[(2-chlorobenzoyl)amino]-1-(3-chloro-4-fluorophenyl)-4,5-dihydro-1H-benzo[g]indazole-3-carboxamide], the IC50 [4] is reported as ≤ 1 µM.
With `NC(=O)c1nn(-c2ccc(O)cc2)c2c1CCc1ccc(NC(=O)c3cc(N)ccc3Cl)cc1-2` [Example 280, 8-[(5-amino-2-chlorobenzoyl)amino]-1-(4-hydroxyphenyl)-4,5-dihydro-1H-benzo[g]indazole-3-carboxamide] the IC50 (Table 10, read-out: IKK2 Resin IC50) was ≤ 1 µM.
With `NC(=O)/C=C/c1ccc(-n2nc(C(N)=O)c3c2-c2cc(NC(=O)c4ccccc4Cl)ccc2CC3)cc1` [Example 292, 1-{4-[(1E)-3-amino-3-oxoprop-1-enyl]phenyl}-8-[(2-chlorobenzoyl)amino]-4,5-dihydro-1H-benzo[g]indazole-3-carboxamide] the IC50 [2] was ≤ 1 µM.
With `N#Cc1ccc(-n2nc(C(N)=O)c3c2-c2cc(NC(=O)c4ccccc4Cl)ccc2CC3)cc1` [Example 369, 8-[(2-chlorobenzoyl)amino]-1-(4-cyanophenyl)-4,5-dihydro-1H-benzo[g]indazole-3-carboxamide] the IC50 (read-out: IKK-2 resin IC50) was ≤ 1 µM.
In the case of `NC(=O)c1nn(-c2ccc3c(c2)OCO3)c2c1CCc1ccc(NC(=O)c3ccc(F)cc3Cl)cc1-2` [Example 164, 1-(1,3-benzodioxol-5-yl)-8-[(2-chloro-4-fluorobenzoyl)amino]-4,5-dihydro-1H-benzo[g]indazole-3-carboxamide], the IC50 [6] is reported as ≤ 1 µM.
For `NC(=O)c1nn(-c2ccc3c(c2)OCO3)c2c1CCc1ccc(NC(=O)c3cc4c(cc3Cl)OCO4)cc1-2` [Example 168, 1-(1,3-benzodioxol-5-yl)-8-{[(6-chloro-1,3-benzodioxol-5-yl)carbonyl]amino}-4,5-dihydro-1H-benzo[g]indazole-3-carboxamide], the IC50 [6] was ≤ 1 µM.
With `COc1ccc(C(=O)Nc2ccc3c(c2)-c2c(c(C(N)=O)nn2-c2ccc(S(C)(=O)=O)cc2)CC3)cc1` [Example 143, 8-[(4-methoxybenzoyl)amino]-1-[4-(methylsulfonyl)phenyl]-4,5-dihydro-1H-benzo[g]indazole-3-carboxamide] the IC50 [1] was ≤ 1 µM.
In the case of `CN(C)CC(=O)Nc1ccc(Cl)c(C(=O)Nc2ccc3c(c2)-c2c(c(C(N)=O)nn2-c2ccc(S(C)(=O)=O)cc2)CC3)c1` [Example 119, 8-({2-chloro-5-[(N,N-dimethylglycyl)amino]benzoyl}amino)-1-[4-(methylsulfonyl)phenyl]-4,5-dihydro-1H-benzo[g]indazole-3-carboxamidehydrochloride], the IC50 [5] is reported as ≤ 1 µM.
In the case of `COCCNC(=O)/C=C/c1ccc(-n2nc(C(N)=O)c3c2-c2cc(NC(=O)c4ccccc4Cl)ccc2CC3)cc1` [Example 309, 8-[(2-chlorobenzoyl)amino]-1-(4-{(1E)-3-[(2-methoxyethyl)amino]-3-oxoprop-1-enyl}phenyl)-4,5-dihydro-1H-benzo[g]indazole-3-carboxamide], the IC50 [7] is reported as ≤ 1 µM.
With `NC(=O)c1nn(-c2ccc(S(=O)(=O)C(F)(F)F)cc2)c2c1CCc1ccc(NC(=O)c3cccnc3Cl)cc1-2` [Example 359, 8-{[(2-chloropyridin-3-yl)carbonyl]amino}-1-{4-[(trifluoromethyl)sulfonyl]phenyl}-4,5-dihydro-1H-benzo[g]indazole-3-carboxamide] the IC50 [4] was ≤ 1 µM.
In the case of `NC(=O)c1nn(-c2ccc(F)cc2F)c2c1CCc1ccc(NC(=O)c3ccccc3Cl)cc1-2` [Example 353, 8-[(2-chlorobenzoyl)amino]-1-(2,4-difluorophenyl)-4,5-dihydro-1H-benzo[g]indazole-3-carboxamide], the IC50 [4] is reported as ≤ 1 µM.
`COc1cc(Cl)c(C(=O)Nc2ccc3c(c2)-c2c(c(C(N)=O)nn2-c2ccc(S(C)(=O)=O)cc2)CC3)cc1OC` [Example 131, 8-[(2-chloro-4,5-dimethoxybenzoyl)amino]-1-[4-(methylsulfonyl)phenyl]-4,5-dihydro-1H-benzo[g]indazole-3-carboxamide] was tested, and the IC50 [1] was ≤ 1 µM.
`CS(=O)(=O)c1ccc(-n2nc(C(N)=O)c3c2-c2cc(NC(=O)c4ccc(N)cc4Cl)ccc2CC3)cc1` [Example 114, 8-[(4-amino-2-chlorobenzoyl)amino]-1-[4-(methylsulfonyl)phenyl]-4,5-dihydro-1H-benzo[g]indazole-3-carboxamide] was tested, and the IC50 [5] was ≤ 1 µM.
`CC(C)S(=O)(=O)c1ccc(-n2nc(C(N)=O)c3c2-c2cc(NC(=O)c4ccccc4Cl)ccc2CC3)cc1` [Example 393, 8-[(2-chlorobenzoyl)amino]-1-[4-(isopropylsulfonyl)phenyl]-4,5-dihydro-1H-benzo[g]indazole-3-carboxamide] was tested, and the IC50 [3] was ≤ 1 µM.
With `CS(=O)(=O)c1ccc(-n2nc(C(N)=O)c3c2-c2cc(NC(=O)c4cccc(Cl)c4F)ccc2CC3)cc1` [Example 104, 8-[(3-chloro-2-fluorobenzoyl)amino]-1-[4-(methylsulfonyl)phenyl]-4,5-dihydro-1H-benza[g]indazole-3-carboxamide] the IC50 [5] was ≤ 1 µM.
With `NC(=O)c1nn(-c2ccc3c(c2)OCO3)c2c1CCc1ccc(NC(=O)c3ccccc3[N+](=O)[O-])cc1-2` [Example 192, 1-(1,3-benzodioxol-5-yl)-8-[(2-nitrobenzoyl)amino]-4,5-dihydro-1H-benzo[g]indazole-3-carboxamide] the IC50 [6] was ≤ 1 µM.
With `NC(=O)c1nn(-c2ccc(/C=C/n3ccnc3)cc2)c2c1CCc1ccc(NC(=O)c3ccccc3Cl)cc1-2` [Example 293, 8-[(2-chlorobenzoyl)amino]-1-{4-[(E)-2-(1H-imidazol-1-yl)ethenyl]phenyl}-4,5-dihydro-1H-benzo[g]indazole-3-carboxamide] the IC50 [2] was ≤ 1 µM.
`NC(=O)c1nn(-c2ccc(/C=C/C(=O)NCc3ccco3)cc2)c2c1CCc1ccc(NC(=O)c3ccccc3Cl)cc1-2` [Example 310, 8-[(2-chlorobenzoyl)amino]-1-(4-{(1E)-3-[(2-furylmethyl)amino]-3-oxoprop-1-enyl}phenyl)-4,5-dihydro-1H-benzo[g]indazole-3-carboxamide] was tested, and the IC50 [7] was ≤ 1 µM.
In the case of `COc1cc(C(=O)Nc2ccc3c(c2)-c2c(c(C(N)=O)nn2-c2ccc(S(C)(=O)=O)cc2)CC3)c([N+](=O)[O-])cc1OC` [Example 150, 8-[(4,5-dimethoxy-2-nitrobenzoyl)amino]-1-[4-(methylsulfonyl)phenyl]-4,5-dihydro-1H-benzo[g]indazole-3-carboxamide], the IC50 [1] is reported as ≤ 1 µM.
`COc1ccc([N+](=O)[O-])c(C(=O)Nc2ccc3c(c2)-c2c(c(C(N)=O)nn2-c2ccc(S(C)(=O)=O)cc2)CC3)c1` [Example 147, 8-[(5-methoxy-2-nitrobenzoyl)amino]-1-[4-(methylsulfonyl)phenyl]-4,5-dihydro-1H-benzo[g]indazole-3-carboxamide] was tested, and the IC50 [1] was ≤ 1 µM.
